# Experimental data: patent US20240018230A1, “METHODS FOR TREATING OR MODULATING AN INFLAMMATORY RESPONSE” (St. Jude Children's Research Hospital, Inc., priority 2020, published 2024)
# B1: IFN-γ: recombinant IFN-γ protein (Peprotech) (protein, UniProt P01579 24-161, looked up)
# Interferon gamma: QDPYVKEAENLKKYFNAGHSDVADNGTLFLGILKNWKEESDRKIMQSQIVSFYFKLFKNFKDDQSIQKSVETIKEDMNVKFFNSNKKKRDDFEKLTNYSVTDLNVQRKAIHELIQVMAELSPAAKTGKRKRSQMLFRG
# Columns and labels:
# [1] = tested on: bone marrow-derived macrophages (BMDMs); assay: Real-time imaging of cell death (propidium iodide, INCUCYTE) in BMDMs; assay type: cell-based, mouse; settings: for inhibition of cell death in response to TNF-α and IFN-γ treatment: wild-type BMDMs co-treated with 1 mM L-NAME or 100 μM 1400W; for induction of cell death in BMDMs: standard cytokine concentrations (25 ng/mL TNF-α, 50 ng/mL IFN-γ)
# [2] = tested on: colon cancer and melanoma cell lines; assay: NO inhibition of TNF-α plus IFN-γ-induced cancer cell death; assay type: cell-based, human; settings: 1 mM L-NAME or 100 μM 1400W
# Experimental: Cell Culture and Stimulation Methods. […] Cancer cells were seeded a day before stimulation. On the day of stimulation, the cells were washed once with warm and sterile DPBS, followed by treatment with different cytokines for 48 hours. The concentration of the cytokines used were 25 ng/mL of IL-6 (Peprotech), IL-8 (Peprotech), IL-18 (R&D), IL-15 (Peprotech), IL-1α (Peprotech), IL-1β (Peprotech), IL-2 (Peprotech), TNF-α (Peprotech), and IFN-γ (Peprotech). For the inhibition of nitric oxide (NO), cancer cells were co-treated with 1 mM of L-NAME hydrochloride (TOCRIS) or 100 μM of […] dihydrochloride (Enzo Life Sciences) along with the cytokines. For inhibition of the JAK signaling pathway, the cancer cells were co-treated with 5 μM of baricitinib (Achemblock) all through the experiment. Cell Death Analysis. The kinetics of cell death were measured using a two-color INCUCYTE® S3 imaging system (Essen Biosciences). […] A series of images were acquired at 1-hour time intervals for up to 48 hours post-treatment with a 20× objective and analyzed using the INCUCYTE® S3 software, which allows precise analysis of the number of dye-positive dead cells present in each image. […]
# [3] = tested on: HCT-116 colon cancer cells; assay: Western blot of PANoptosis markers in HCT-116; assay type: cell-based, human
# Experimental: Western Blot Analysis. For the western blot analyses of caspases, cancer cells were seeded a day before stimulation at a density of 0.5×10^6 cells/well in 6-well cell culture plates. The proteins from the indicated cell types were collected by combining cell lysates with culture supernatants with caspase lysis buffer (with 1× protease inhibitors, 1× phosphatase inhibitors, 10% NP-40, and 25 mM DTT) and 4× sample loading buffer (containing SDS and 2-mercaptoethanol). For the western blot analysis of all other signaling proteins, the cells were lysed in RIPA buffer, supplemented with protease inhibitor and phosphoStop as per the manufacturer's instructions and sample loading buffer. […]
# [4] = In vivo TNF-α and IFN-γ-induced inflammatory shock (mortality, serum chemistry, blood counts, flow cytometry, histopathology); set-up: species or system mice; settings: i.p. 10 μg TNF-α, 20 μg IFN-γ, or both
# Experimental: In vivo TNF-α and IFN-γ-Induced Inflammatory Shock. Six- to eight-week-old mice of the indicated genotypes were injected intraperitoneally with 10 μg TNF-α alone, 20 μg IFN-γ alone, or TNF-α+IFN-γ diluted in endotoxin-free PBS. Animals were under permanent observation, and survival was assessed every 30 minutes. Blood was collected 5 hours after cytokine injection. Blood composition was analyzed using an automated hematology analyzer. Serum lactate dehydrogenase (LDH), alanine aminotransferase (ALT), aspartate aminotransferase (AST), blood urea nitrogen (BUN), and ferritin were analyzed by colorimetry using respective kits (LDH, ALT, AST, and BUN, all from HORIBA; and ferritin from Abcam) according to the manufacturer's instructions.
# Flow Cytometry Methods. Peripheral blood was mixed with ACK lysis buffer for 3 minutes to lyse the red blood cells (RBCs). The cells were then stained with monoclonal antibodies for the following markers for flow cytometry: CD11b from eBioscience; F4/80, Ly6C, and Ly6G from BioLegend; and CD19, TCRb, and CD45.2 from Tonbo Biosciences. […]
# Histopathology Methods. […] The number of cleaved caspase-3- and TUNEL-positive cells in five high power fields (20×) were counted per mouse.
# [5] = tested on: BMDMs; assay: Immunoblot analysis of cell death effectors in BMDMs; assay type: cell-based, mouse; settings: for cleavage of caspase-3, -7 and -8: single cytokines compared with the combination
# [6] = tested on: COLO-205 cell tumors; assay: NSG mouse xenograft tumor model, intratumoral cytokines; assay type: in vivo, NSG mice; settings: intra-tumoral administration on day 12, 14 and 16 post-transplantation
# Experimental: NSG Mouse Xenograft Tumor Model. The NSG mice (NOD/SCID-gamma null mouse strain that lacks […]) were used as the model recipients for the subcutaneous transplantation of human COLO-205 cancer cells. Briefly, 8- to 10-week-old NSG mice were shaved on their lower backs and transplanted with 2×10^6 COLO-205 cells in 200 μl of medium prepared by mixing (1:1) RPMI and a solubilized basement membrane preparation sold under the tradename MATRIGEL® (BD Bioscience). The mice were monitored regularly for engraftment and growth of COLO-205 cancer cell tumors. The recipient mice were divided into four groups and treated intratumorally with injection of the indicated cytokines or PBS (groups: (i) PBS, (ii) TNF-α, (iii) IFN-γ, or (iv) TNF-α(and IFN-γ) on day 12, 14 and 16 post-transplantation of the tumor cells. The tumor growth was monitored and measured using digital calipers, and the volume of the tumors were calculated using the formula: volume=(length×width^2)×½.
Molecule,inhibition of cell death in response to TNF-α and IFN-γ treatment [1],inhibition of cancer cell death induced by TNF-α plus IFN-γ treatment [2],activation of biochemical markers of PANoptosis in HCT-116 [3],induction of cell death in BMDMs [1],mortality in mice [4],cleavage of GSDMD and GSDME (combination: GSDME) [5],phosphorylation of MLKL [5],"cleavage of caspase-3, -7 and -8 [5]",further results
"COC(=O)[C@@H](N)CCCNC(=N)N[N+](=O)[O-] [L-NAME, N5-[imino(nitroamino)methyl]-L-ornithine methyl ester]",inhibited cell death,failed to inhibit,–,–,–,–,–,–,–
TNF-α,–,–,only weak activation,failed to induce cell death,did not cause significant mortality,did not induce robust cleavage,failed to induce robust MLKL phosphorylation,reduced cleavage,tumor weight [6]: minor but significant reduction
"CC(=N)NCc1cccc(CN)c1 [1400W, N-[[3-(aminomethyl)phenyl]methyl]-ethanimidamide]",inhibited cell death,failed to inhibit,–,–,–,–,–,–,–
[NH-]c1c[n+](N2CCOCC2)no1 [SIN-1],–,–,–,–,–,–,–,–,"kinetics of cell death induced by NO donor ([1]; wild-type BMDMs, increasing concentrations of SIN-1): proportional to the NO concentration"
IFN-γ: recombinant IFN-γ protein (Peprotech),–,–,only weak activation,failed to induce cell death,–,did not induce robust cleavage,failed to induce robust MLKL phosphorylation,reduced cleavage,–
B1,–,–,–,–,did not cause significant mortality,–,–,–,–
